We go through three compounds from patent US20040248821A1, “Composition for the treatment of lupus” (priority 2001, published 2004).

“Also recorded” adds a separate entry of the source.

Assay [1] has as its system patients with Lupus (SLE). Kind of assay: Treatment of human Lupus patients with the inventive composition (case reports). The class given is in vivo. The conditions noted are these: flavonoid replacing Quercetin in the inventive formula; limited tests.
Assay [2] concerns osteoarthritis or Lupus caused joint inflammation. The conditions noted are these: Bromelain alone; cited from earlier work.

Turning to `O=c1cc(-c2ccc(O)c(O)c2)oc2cc(O)cc(O)c12` [Luteolin], in assay [1], the “Effectiveness of the flavonoid in the inventive formula (with Bromelain and Vitamin C)” value was “also effective; also recorded: somewhat more effective than Quercetin”. On the same count and under the same terms, the result for `O=c1c(O)c(-c2cc(O)c(O)c(O)c2)oc2cc(O)cc(O)c12` [Myricetin] reads “also effective; also recorded: somewhat effective”. Regarding Bromelain, the Ameliorating joint pain result in assay [2] is “not effective”.
